Our source for the Ki values is patent US12110288B2, “MASP-2 inhibitors and methods of use” (Omeros Corporation, priority 2019, dated 2024).

SMILES strings stand for the structures. Counter-ions that a name gives are not always drawn. A value given as a limit tells only on which side of the number the result lay.

T1 sequence (O00187 445-686 limits assumed): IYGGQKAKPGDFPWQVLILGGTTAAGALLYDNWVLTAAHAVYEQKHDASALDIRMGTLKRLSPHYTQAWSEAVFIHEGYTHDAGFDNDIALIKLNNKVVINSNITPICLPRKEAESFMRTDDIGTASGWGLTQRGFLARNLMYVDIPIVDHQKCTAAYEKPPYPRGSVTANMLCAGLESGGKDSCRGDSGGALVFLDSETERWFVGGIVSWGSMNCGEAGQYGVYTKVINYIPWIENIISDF
T1 sequence (O00187 298-444 partner limits assumed): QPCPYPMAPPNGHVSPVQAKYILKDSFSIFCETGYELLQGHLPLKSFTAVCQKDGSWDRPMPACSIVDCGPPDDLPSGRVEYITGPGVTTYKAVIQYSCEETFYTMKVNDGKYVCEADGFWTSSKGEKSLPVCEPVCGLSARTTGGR

This test concerns the target T1, MASP-2 (CCP1-CCP2-SP) (Homo sapiens, UniProt O00187).
T1 construct: 15 μL of Enzyme MASP-2 (CCP1-CCP2-SP) in Assay Buffer
In words: Enzymatic Assay for MASP-2. The class given is biochemical. The settings on record: fluorogenic substrate based on C2 cleavage site, room temperature, 20 mM HEPES pH 7.4. An outline of the steps: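 Fluorogenic substrate modelled on the C2 cleavage site, run at room temperature in 20 mM HEPES pH 7.4, 140 mM NaCl, 0.1% Tween 20; compounds were added from DMSO serial dilutions before enzyme and substrate. Reactions ran 20 min and were stopped with 0.1 M acetic acid before fluorescence was read. % activity was normalised to DMSO-only and no-enzyme controls; IC50 was taken as Ki, with tight- or slow-binding inhibitors handled separately.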
Usually Ki stands for a dissociation constant, usually derived from enzyme kinetics or from competition with a known ligand. `O=C(O)Cc1cccc(-c2cnc(NCCc3ccccc3)c(=O)n2CC(=O)NCc2cc3cnccc3[nH]2)c1` [Compound 94, 2-(3-(1-(2-(((1H-Pyrrolo[3,2-c]Pyridin-2-yl)Methyl) Amino)-2-Oxoethyl)-6-Oxo-5-(Phenethylamino)-1,6-Dihydropyrazin-2-yl)Phenyl)Acetic Acid Trifluoroacetate] showed a Ki of less than 500 nM.
Molecule `O=C(Cn1c(-c2ccccc2)cnc(NCCc2ccccc2)c1=O)NCc1cc2c(s1)CNCC2` [Compound 83, 2-(2-Oxo-3-(Phenethylamino)-6-Phenylpyrazin-1(2H)-yl)-N-((4,5,6,7-Tetrahydrothieno[2,3-c]Pyridin-2-yl)Methyl)Acetamide] displayed a Ki of less than 500 nM.
Regarding `O=C(Cn1c(-c2ccccc2)cnc(NCC2(c3cccc(F)c3)CC2)c1=O)NCc1cc2cnccc2[nH]1` [Compound 64, N-((1H-Pyrrolo[3,2-c]pyridin-2-yl)methyl)-2-(3-(((1-(3-fluorophenyl)cyclopropyl)methyl)amino)-2-oxo-6-phenylpyrazin-1(2H)-yl)acetamide], the Ki is less than 500 nM.
Take `Cc1nc(N)ccc1CNC(=O)Cn1c(-c2ccccc2)c(Cl)nc(N(C)C)c1=O` [Compound 39, N-((6-Amino-2-methylpyridin-3-yl)methyl)-2-(5-chloro-3-(dimethylamino)-2-oxo-6-phenylpyrazin-1(2H)-yl)acetamide]: the Ki was 2500 to 10000 nM.
The molecule `Cc1nc(N)ccc1CNC(=O)Cn1c(-c2cccc3cc[nH]c23)cnc(NCCc2ccccc2)c1=O` [Compound 85] yielded a Ki of less than 500 nM.
As for `COc1ccccc1CCNc1ncc(-c2ccccc2)n(CC(=O)NCc2cc3cnccc3[nH]2)c1=O` [Compound 141, N-((1H-Pyrrolo[3,2-c]pyridin-2-yl)methyl)-2-(3-((2-methoxyphenethyl)amino)-2-oxo-6-phenylpyrazin-1(2H)-yl)acetamide], the figure is less than 500 nM; as for `O=C(Cn1c(-c2ccccc2)cnc(NCCc2ccc(F)cc2)c1=O)NCc1cc2cnccc2[nH]1` [Compound 146, N-((1H-Pyrrolo[3,2-c]pyridin-2-yl)methyl)-2-(3-((4-fluorophenethyl)amino)-2-oxo-6-phenylpyrazin-1(2H)-yl)acetamide], less than 500 nM.
In the case of `Cc1nc(N)ccc1CNC(=O)Cn1c(-c2ccc(CO)cc2)cnc(NCCc2ccccc2)c1=O` [Compound 33], the inhibition constant Ki was less than 500 nM.
The molecule `Cn1cc(-c2cnc(NCC(F)(F)c3ccccc3)c(=O)n2CC(=O)NCc2cc3cnccc3[nH]2)cn1` [Compound 123, N-((1H-Pyrrolo[3,2-c]Pyridin-2-yl)Methyl)-2-(3-((2,2-Difluoro-2-Phenylethyl)Amino)-6-(1-Methyl-1H-Pyrazol-4-yl)-2-Oxopyrazin-1(2H)-yl)Acetamide Trifluoroacetate] gave a Ki of less than 500 nM.
Consider `O=C(Cn1c(-c2ccc(Cl)s2)cnc(NCCc2ccccc2)c1=O)NCc1cc2cnccc2[nH]1` [Compound 89, N-((1H-Pyrrolo[3,2-c]Pyridin-2-yl)Methyl)-2-(6-(5-Chlorothiophen-2-yl)-2-Oxo-3-(Phenethylamino)Pyrazin-1(2H)-yl)Acetamide], for which the Ki is less than 500 nM.
As for `O=C(Cn1c(-c2cc(F)ccc2F)cnc(NCCc2ccccc2)c1=O)NCc1cc2cnccc2[nH]1` [Compound 107, N-((1H-Pyrrolo[3,2-c]pyridin-2-yl)methyl)-2-(6-(2,5-difluorophenyl)-2-oxo-3-(phenethylamino)pyrazin-1(2H)-yl)acetamide], the figure is less than 500 nM; as for `Cc1nc(N)ccc1CNC(=O)Cn1c(-c2ccccc2)c(Cl)nc(NCCc2ccccc2)c1=O` [Compound 41, N-((6-Amino-2-Methylpyridin-3-yl)Methyl)-2-(5-Chloro-2-Oxo-3-(Phenethylamino)-6-Phenylpyrazin-1(2H)-yl)Acetamide], 500 to 2500 nM; as for `O=C(Cn1c(-c2ccccc2)cnc(NCCCc2ccccc2)c1=O)NCc1cc2cnccc2[nH]1` [Compound 48, N-((1H-Pyrrolo[3,2-c]pyridin-2-yl)methyl)-2-(2-oxo-6-phenyl-3-((3-phenylpropyl)amino)pyrazin-1(2H)-yl)acetamide trifluoroacetate], less than 500 nM.
Turning to `O=C(Cn1c(-c2cnn3c2CCCC3)cnc(NCCc2ccccc2)c1=O)NCc1cc2cnccc2[nH]1` [Compound 116, N-((1H-Pyrrolo[3,2-c]pyridin-2-yl)methyl)-2-(2-oxo-3-(phenethylamino)-6-(4,5,6,7-tetrahydropyrazolo[1,5-α]pyridin-3-yl)pyrazin-1(2H)-yl)acetamide], the Ki was less than 500 nM.
In turn, `Cc1nc(N)ccc1CNC(=O)Cn1c(-c2ccccc2)cnc(N2CCCC2)c1=O` [Compound 43, N-((6-Amino-2-Methylpyridin-3-yl)Methyl)-2-(2-Oxo-6-Phenyl-3-(Pyrrolidin-1-yl)Pyrazin-1(2H)-yl)Acetamide] came in with a Ki of less than 500 nM.
`COCCCNc1ncc(-c2ccccc2)n(CC(=O)NCc2cc3cnccc3[nH]2)c1=O` [Compound 121, N-((1H-Pyrrolo[3,2-c]pyridin-2-yl)methyl)-2-(3-((3-methoxypropyl)amino)-2-oxo-6-phenylpyrazin-1(2H)-yl)acetamide trifluoroacetate] came in with a Ki of less than 500 nM.
`Cn1cc(NS(=O)(=O)Cc2ccccc2)c(=O)n(CC(=O)NCc2ccc(C(=N)N)cc2)c1=O` [Compound 37, N-(4-Carbamimidoylbenzyl)-2-(3-Methyl-2,6-Dioxo-5-((Phenylmethyl)Sulfonamido)-3,6-Dihydropyrimidin-1(2H)-yl)Acetamide, Trifluoroacetate] had a Ki of 500 to 2500 nM.
Take `O=C(Cn1c(-c2ccccc2)cnc(NC2(c3ccccc3)CC2)c1=O)NCc1cc2cnccc2[nH]1` [Compound 66, N-((1H-Pyrrolo[3,2-c]pyridin-2-yl)methyl)-2-(2-oxo-6-phenyl-3-((1-phenylcyclopropyl)amino)pyrazin-1(2H)-yl)acetamide trifluoroacetate]: the Ki is less than 500 nM.
`CCOC(=O)CNc1ncc(-c2ccccc2)n(CC(=O)NCc2cc3cnccc3[nH]2)c1=O` [Compound 117, Ethyl (4-(2-(((1H-pyrrolo[3,2-c]pyridin-2-yl)methyl)amino)-2-oxoethyl)-3-oxo-5-phenyl-3,4-dihydropyrazin-2-yl)glycinate]: the Ki was less than 500 nM.
As for `Cc1nc(N)ccc1CNC(=O)Cn1c(-c2ccc(C#N)cc2)cnc(NCCc2ccccc2)c1=O` [Compound 27, N-((6-Amino-2-Methylpyridin-3-yl)Methyl)-2-(6-(4-Cyanophenyl)-2-Oxo-3-(Phenethyl Amino)Pyrazin-1(2H)-yl)Acetamide], the figure is less than 500 nM; as for `O=C(Cn1c(-c2ccccc2)cnc(NCC2(c3ccc(F)cc3)CC2)c1=O)NCc1cc2cnccc2[nH]1` [Compound 59, N-((1H-Pyrrolo[3,2-c]pyridin-2-yl)methyl)-2-(3-(((1-(4-fluorophenyl)cyclopropyl)methyl)amino)-2-oxo-6-phenylpyrazin-1(2H)-yl)acetamide trifluoroacetate], less than 500 nM.
In turn, `Cn1cc(-c2cnc(NCCc3ccccc3)c(=O)n2CC(=O)NCc2cc3cnccc3s2)cn1` [Compound 133, 2-(6-(1-Methyl-1H-Pyrazol-4-yl)-2-Oxo-3-(Phenethylamino)Pyrazin-1(2H)-yl)-N-(Thieno[3,2-c]Pyridin-2-Ylmethyl)Acetamide] displayed an inhibition constant Ki of less than 500 nM.
On to `Cn1cc(-c2cnc(NCCc3ccccc3)c(=O)n2CC(=O)NCc2cnc3[nH]ccc3c2)cn1` [Compound 131, N-((1H-Pyrrolo[2,3-b]Pyridin-5-yl)Methyl)-2-(6-(1-Methyl-1H-Pyrazol-4-yl)-2-Oxo-3-(Phenethylamino)Pyrazin-1(2H)-yl)Acetamide], for which the Ki was greater than 10000 nM.
Then `COCCNc1ncc(-c2ccccc2)n(CC(=O)NCc2cc3cnccc3[nH]2)c1=O` [Compound 120, N-((1H-Pyrrolo[3,2-c]pyridin-2-yl)methyl)-2-(3-((2-methoxyethyl)amino)-2-oxo-6-phenylpyrazin-1(2H)-yl)acetamide trifluoroacetate], with less than 500 nM; and `Cc1nc(N)ccc1CNC(=O)Cn1c(-c2ccc(N)cc2)cnc(NCCc2ccccc2)c1=O` [Compound 31, N-((6-Amino-2-Methylpyridin-3-yl)Methyl)-2-(6-(4-Aminophenyl)-2-Oxo-3-(Phenyethylamino)Pyrazin-1-(2H)-yl)Acetamide], with less than 500 nM; and `Cn1cc(-c2cnc(NCCc3ccccc3)c(=O)n2CC(=O)NCc2ccc3c(c2)CCNC3)cn1` [Compound 80, 2-(6-(1-Methyl-1H-Pyrazol-4-yl)-2-Oxo-3-(Phenethylamino)Pyrazin-1(2H)-yl)-N-((1,2,3,4-Tetrahydroisoquinolin-6-yl)Methyl)Acetamide], with 2500 to 10000 nM.
`Cn1cc(-c2cnc(NCCc3ccccc3)c(=O)n2CC(=O)NCc2cnc3[nH]cc(Cl)c3c2)cn1` [Compound 81, N-((3-Chloro-1H-Pyrrolo[2,3-b]Pyridin-5-yl)Methyl)-2-(6-(1-Methyl-1H-Pyrazol-4-yl)-2-Oxo-3-(Phenethylamino)Pyrazin-1(2H)-yl)Acetamide] displayed a Ki of 2500 to 10000 nM.
With `COc1cccc(C2(CNc3ncc(-c4ccccc4)n(CC(=O)NCc4cc5cnccc5[nH]4)c3=O)CC2)c1` [Compound 68, N-((1H-Pyrrolo[3,2-c]pyridin-2-yl)methyl)-2-(3-(((1-(3-methoxyphenyl)cyclopropyl)methyl)amino)-2-oxo-6-phenylpyrazin-1(2H)-yl)acetamide trifluoroacetate], the Ki was less than 500 nM.
Consider `O=C(Cn1c(-c2cn[nH]c2)cnc(NCCc2ccccc2)c1=O)NCc1cc2cnccc2[nH]1` [Compound 102, N-((1H-Pyrrolo[3,2-c]pyridin-2-yl)methyl)-2-(2-oxo-3-(phenethylamino)-6-(1H-pyrazol-4-yl)pyrazin-1(2H)-yl)acetamide], for which the Ki is less than 500 nM.
In the case of `Cn1cc(NCCc2ccccc2)c(=O)n(CC(=O)NCc2cc3cnccc3[nH]2)c1=O` [Compound 161, N-((1H-Pyrrolo[3,2-c]Pyridin-2-yl)Methyl)-2-(3-Methyl-2,6-Dioxo-5-(Phenethylamino)-3,6-Dihydropyrimidin-1(2H)-yl)Acetamide], the Ki is less than 500 nM.
